Results from PMC8544881 (mSphere, 2021).

Target: T1, ZBTB25 (Homo sapiens, UniProt P24278)
T1 construct: recombinant ZBTB25 protein
T1 sequence (P24278 1-435): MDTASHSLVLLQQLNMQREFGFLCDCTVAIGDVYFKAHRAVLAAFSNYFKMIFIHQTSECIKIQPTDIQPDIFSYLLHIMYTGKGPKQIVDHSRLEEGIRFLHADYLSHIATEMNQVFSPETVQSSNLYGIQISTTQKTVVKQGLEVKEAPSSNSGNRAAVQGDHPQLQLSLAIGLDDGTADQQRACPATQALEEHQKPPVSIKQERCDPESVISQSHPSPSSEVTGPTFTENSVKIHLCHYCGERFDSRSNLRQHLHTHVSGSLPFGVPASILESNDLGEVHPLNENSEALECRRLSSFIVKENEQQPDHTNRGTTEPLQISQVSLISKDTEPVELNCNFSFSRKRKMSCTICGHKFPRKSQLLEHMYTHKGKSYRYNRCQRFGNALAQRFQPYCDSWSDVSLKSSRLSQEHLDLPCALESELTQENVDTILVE
Experiment: zinc ejection assay with FluoZin-3 fluorescence
Assay type: binding

Molecule | IC50 [µM]
dithiopyridine [DP] | 4.61 ± 0.28
CCN(CC)C(=S)SSC(=S)N(CC)CC [DS, disulfiram] | 10.3 ± 0.3
